Test system: Staphylococcus aureus
Assay: Zone of inhibition assay
Format: cell-based
Details: 37° C. for 72 hours
Description: Zone-of-inhibition and Drug Delivery Assay—Antimicrobial activity of ciprofloxacin- and tetracycline-loaded polyHIPEs was assessed through a zone of inhibition assay. […] The polyHIPE discs were incubated in the drug solutions at room temperature overnight. Prior to being frozen and lyophilized, the discs were briefly rinsed with methanol. A plate of Staphylococcus aureus was streaked using cells from frozen stocks; single colonies, selected from the plate, were then used to inoculate 10 mL of liquid LB media, which were cultured overnight at 37° C. The starter cultures were diluted with fresh LB to an OD600 of approximately 1.1 before being further diluted in 1:5 ratio of culture to fresh, liquid LB media. To inoculate LB agar plates, 250 μL of the diluted culture was spread evenly across the surface of the plates, which were then incubated for 30 minutes at 37° C. The LB plates were then removed from the incubator and divided into 4 quadrants with the drug-loaded or control polyHIPE discs placed in the center of each quadrant. The plates were then returned to the incubator and cultured for approximately 24 hours. Following the 24-hour period of incubation, the plates were removed, photographed next to a standard ruler and the polyHIPEs transferred to a freshly inoculated plate which was incubated for another 24 hours. […]

O=C(O)c1cn(C2CC2)c2cc(N3CCNCC3)c(F)cc2c1=O [ciprofloxacin]
antibiotic activity within polyHIPEs after incubation: not diminished

— patent publication US11639412B2, “Acute care cover for severe injuries” (priority 2016, dated 2023)
